Data reported in ChEMBL document CHEMBL1201862, “PubChem BioAssay data set” (2004).
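Each compound was tested at five concentrations against cells in 96-well plates for 48 hours. GI50 = concentration required for 50% inhibition of growth.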 Activity calls are given as the source filed them. Rule as the data show it: active = GI50 up to about 1.1 µM and inactive = higher.

How the values were obtained:
Test in all cases: DTP human tumour cell line panel, 48 h
MDA-N = test system: MDA-N
OVCAR-3 = test system: OVCAR-3
SK-OV-3 = test system: SK-OV-3
Malme-3M = test system: Malme-3M
K562 = test system: K562
SF-539 = test system: SF-539
KM12 = test system: KM12
DU-145 = test system: DU-145
HL-60 = test system: HL-60
OVCAR-4 = test system: OVCAR-4
ACHN = test system: ACHN
NCI-H23 = test system: NCI-H23
SK-MEL-28 = test system: SK-MEL-28
IGROV-1 = test system: IGROV-1
U-251 = test system: U-251
SR = test system: SR
786-0 = test system: 786-0
OVCAR-5 = test system: OVCAR-5
A549 = test system: A549
SN12C = test system: SN12C
CCRF-CEM = test system: CCRF-CEM
SF-295 = test system: SF-295
NCI-H226 = test system: NCI-H226
TK-10 = test system: TK-10
RPMI-8226 = test system: RPMI-8226
HOP-62 = test system: HOP-62
T47D = test system: T47D
COLO 205 = test system: COLO 205
SK-MEL-5 = test system: SK-MEL-5
HCC 2998 = test system: HCC 2998
LOX IMVI = test system: LOX IMVI
HT-29 = test system: HT-29
BT-549 = test system: BT-549
RXF 393 = test system: RXF 393
SW-620 = test system: SW-620
HCT-15 = test system: HCT-15
M14 = test system: M14
PC-3 = test system: PC-3
MDA-MB-231 = test system: MDA-MB-231
MCF7 = test system: MCF7
OVCAR-8 = test system: OVCAR-8
A498 = test system: A498
NCI-H460 = test system: NCI-H460
NCI/ADR-RES = test system: NCI/ADR-RES
UACC-62 = test system: UACC-62
SNB-75 = test system: SNB-75
HCT-116 = test system: HCT-116
NCI-H522 = test system: NCI-H522
SF-268 = test system: SF-268
Hs-578T = test system: Hs-578T
HOP-92 = test system: HOP-92
UO-31 = test system: UO-31
EKVX = test system: EKVX
SK-MEL-2 = test system: SK-MEL-2
SNB-19 = test system: SNB-19
MOLT-4 = test system: MOLT-4
UACC-257 = test system: UACC-257
MDA-MB-435 = test system: MDA-MB-435
CAKI-1 = test system: CAKI-1

COc1cc2oc(-c3ccc(O)cc3O)c(CC=C(C)C)c(=O)c2c(O)c1/C=C/C(C)C [ARTOCARPIN]
GI50 (MDA-N): 2.79 µM (inactive) | GI50 (OVCAR-3): 2.08 µM (inactive) | GI50 (SK-OV-3): 7.21 µM (inactive) | GI50 (Malme-3M): 6.4 µM (inactive) | GI50 (K562): 2.12 µM (inactive) | GI50 (SF-539): 4.91 µM (inactive) | GI50 (KM12): 3.1 µM (inactive) | GI50 (DU-145): 4.26 µM (inactive) | GI50 (HL-60): 2.75 µM (inactive) | GI50 (OVCAR-4): 2.61 µM (inactive) | GI50 (ACHN): 2.8 µM (inactive) | GI50 (NCI-H23): 3.24 µM (inactive) | GI50 (SK-MEL-28): 5.85 µM (inactive) | GI50 (IGROV-1): 3.52 µM (inactive) | GI50 (U-251): 2.56 µM (inactive) | GI50 (SR): 2.02 µM (inactive) | GI50 (786-0): 2.14 µM (inactive) | GI50 (OVCAR-5): 6.64 µM (inactive) | GI50 (A549): 2.75 µM (inactive) | GI50 (SN12C): 1.81 µM (inactive) | GI50 (CCRF-CEM): 2.36 µM (inactive) | GI50 (SF-295): 3.48 µM (inactive) | GI50 (NCI-H226): 3.58 µM (inactive) | GI50 (TK-10): 4.85 µM (inactive) | GI50 (RPMI-8226): 2.62 µM (inactive) | GI50 (HOP-62): 2.42 µM (inactive) | GI50 (T47D): 7.1 µM (inactive) | GI50 (COLO 205): 4.02 µM (inactive) | GI50 (SK-MEL-5): 1.69 µM (inactive) | GI50 (HCC 2998): 2.46 µM (inactive) | GI50 (LOX IMVI): 1.8 µM (inactive) | GI50 (HT-29): 2.51 µM (inactive) | GI50 (BT-549): 5.45 µM (inactive) | GI50 (RXF 393): 2.12 µM (inactive) | GI50 (SW-620): 2.33 µM (inactive) | GI50 (HCT-15): 2.96 µM | GI50 (M14): 1.77 µM (inactive) | GI50 (PC-3): 2.79 µM (inactive) | GI50 (MDA-MB-231): 2.55 µM (inactive) | GI50 (MCF7): 2.88 µM (inactive) | GI50 (OVCAR-8): 1.75 µM (inactive) | GI50 (A498): 2.21 µM (inactive) | GI50 (NCI-H460): 3.21 µM (inactive) | GI50 (NCI/ADR-RES): 2.64 µM (inactive) | GI50 (UACC-62): 3.83 µM (inactive) | GI50 (SNB-75): 3.04 µM (inactive) | GI50 (HCT-116): 2.1 µM (inactive) | GI50 (NCI-H522): 3.24 µM (inactive) | GI50 (SF-268): 2.25 µM (inactive) | GI50 (Hs-578T): 3.44 µM (inactive) | GI50 (HOP-92): 3.08 µM (inactive) | GI50 (UO-31): 2.95 µM (inactive) | GI50 (EKVX): 4.2 µM (inactive) | GI50 (SK-MEL-2): 6.41 µM (inactive) | GI50 (SNB-19): 2.72 µM (inactive) | GI50 (MOLT-4): 2.33 µM (inactive) | GI50 (UACC-257): 6.31 µM (inactive) | GI50 (MDA-MB-435): 1.99 µM (inactive)

O=C(CCc1cc(O)cc(O)c1)NCCc1cc(OCc2ccccc2)cc(OCc2ccccc2)c1
GI50 (MDA-N): 13.7 µM (inactive) | GI50 (OVCAR-3): 14.7 µM (inactive) | GI50 (SK-OV-3): 16.8 µM (inactive) | GI50 (K562): 4.8 µM (inactive) | GI50 (SF-539): 16.2 µM (inactive) | GI50 (KM12): 12.6 µM (inactive) | GI50 (DU-145): 15.8 µM (inactive) | GI50 (HL-60): 2.7 µM (inactive) | GI50 (ACHN): 3.4 µM (inactive) | GI50 (NCI-H23): 10.4 µM (inactive) | GI50 (SK-MEL-28): 17.5 µM (inactive) | GI50 (IGROV-1): 15.5 µM (inactive) | GI50 (U-251): 13 µM (inactive) | GI50 (SR): 4.83 µM (inactive) | GI50 (786-0): 18.7 µM (inactive) | GI50 (OVCAR-5): 20.2 µM (inactive) | GI50 (A549): 5.28 µM (inactive) | GI50 (SN12C): 14.9 µM (inactive) | GI50 (CCRF-CEM): 7.8 µM (inactive) | GI50 (SF-295): 10.4 µM (inactive) | GI50 (NCI-H226): 15.9 µM (inactive) | GI50 (TK-10): 21.4 µM (inactive) | GI50 (RPMI-8226): 7.45 µM (inactive) | GI50 (HOP-62): 16.4 µM (inactive) | GI50 (T47D): 11.2 µM (inactive) | GI50 (COLO 205): 20.5 µM (inactive) | GI50 (SK-MEL-5): 10.6 µM (inactive) | GI50 (HCC 2998): 19.6 µM (inactive) | GI50 (LOX IMVI): 11.5 µM (inactive) | GI50 (HT-29): 14.8 µM (inactive) | GI50 (BT-549): 16.4 µM (inactive) | GI50 (RXF 393): 8.55 µM (inactive) | GI50 (SW-620): 15.8 µM (inactive) | GI50 (HCT-15): 14.7 µM | GI50 (M14): 13.2 µM (inactive) | GI50 (PC-3): 8.89 µM (inactive) | GI50 (MDA-MB-231): 10.3 µM (inactive) | GI50 (MCF7): 4.92 µM (inactive) | GI50 (OVCAR-8): 13.7 µM (inactive) | GI50 (A498): 21.2 µM (inactive) | GI50 (NCI-H460): 4.68 µM (inactive) | GI50 (NCI/ADR-RES): 17.8 µM (inactive) | GI50 (UACC-62): 16.9 µM (inactive) | GI50 (SNB-75): 11 µM (inactive) | GI50 (HCT-116): 12.9 µM (inactive) | GI50 (NCI-H522): 11.9 µM (inactive) | GI50 (SF-268): 15 µM (inactive) | GI50 (Hs-578T): 16.8 µM (inactive) | GI50 (HOP-92): 17.1 µM (inactive) | GI50 (UO-31): 3.55 µM (inactive) | GI50 (EKVX): 7.24 µM (inactive) | GI50 (SK-MEL-2): 10.2 µM (inactive) | GI50 (CAKI-1): 19.2 µM (inactive) | GI50 (SNB-19): 2.41 µM (inactive) | GI50 (MOLT-4): 5.35 µM (inactive) | GI50 (UACC-257): 23.6 µM (inactive) | GI50 (MDA-MB-435): 11.1 µM (inactive)
